Experimental data from paper doi:10.1101/2020.05.01.070730v2 (biorxiv, 2021).

Target: MutS (Pseudomonas aeruginosa, UniProt Q9HY08)
Test: biochemical

MutS, sequence (Q9HY08 whole entry): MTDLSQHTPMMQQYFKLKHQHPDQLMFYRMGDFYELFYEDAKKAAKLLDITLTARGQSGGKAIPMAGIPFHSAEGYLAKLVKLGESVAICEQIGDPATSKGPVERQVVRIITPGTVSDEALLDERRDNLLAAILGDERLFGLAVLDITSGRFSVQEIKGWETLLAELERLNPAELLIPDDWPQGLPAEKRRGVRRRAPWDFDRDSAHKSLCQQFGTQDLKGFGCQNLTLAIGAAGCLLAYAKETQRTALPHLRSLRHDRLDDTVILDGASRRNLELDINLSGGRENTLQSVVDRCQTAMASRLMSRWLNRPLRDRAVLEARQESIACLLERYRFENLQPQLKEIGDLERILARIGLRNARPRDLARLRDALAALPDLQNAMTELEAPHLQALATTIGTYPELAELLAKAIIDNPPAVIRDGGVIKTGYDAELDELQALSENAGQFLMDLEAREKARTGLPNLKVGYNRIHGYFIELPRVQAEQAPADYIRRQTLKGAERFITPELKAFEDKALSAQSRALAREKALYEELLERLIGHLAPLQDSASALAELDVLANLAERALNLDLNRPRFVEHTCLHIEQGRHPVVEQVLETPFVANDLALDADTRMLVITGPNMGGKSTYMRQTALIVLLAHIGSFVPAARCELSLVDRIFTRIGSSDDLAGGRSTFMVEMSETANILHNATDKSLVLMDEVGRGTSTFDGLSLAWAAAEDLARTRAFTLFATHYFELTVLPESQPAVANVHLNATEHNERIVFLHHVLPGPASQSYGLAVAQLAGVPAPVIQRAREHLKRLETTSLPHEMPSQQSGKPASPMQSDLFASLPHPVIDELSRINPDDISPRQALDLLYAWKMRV

## Nc1ncnc2c1ncn2[C@@H]1O[C@H](COP(=O)(O)OP(=O)(O)OP(=O)(O)O)[C@@H](O)[C@H]1O [ATP]
  EC50: 618 ± 49 µM
